Measurements from patent US10870618B2, “Histone deacetylase inhibitors and uses thereof” (MUSC FOUNDATION FOR RESEARCH DEVELOPMENT, priority 2016, dated 2020).
“And” between values parts separate entries of the source, which are not always exact repeats. Identical values can stand only once. “Also recorded” adds a separate entry of the source.

Legend:
class I HDACs = test: Class I HDAC inhibition (FIG. 7a); format: biochemical
Method: All Treatments are at 100 nM inhibitor concentration.

[1] = tested on: melanoma and renal cancer; test: Cell line efficacy, melanoma and renal cancer growth; format: cell-based; details: melanoma and renal cancer cell lines
Text: Percent growth below zero indicates the treatment has selective lethality to the cancer cells.

AML cell lines = test: AML / leukemia cell toxicity; format: cell-based
Method: MV4-11 cells were purchased from ATCC. The cells were grown according to ATCC protocol in Iscove's Modified Deulbecco's Medium with 10% Fetal Bovine Serum. Cells were grown in 37° C. environments with 5% CO2. Cells were plated at 20 k cells/well in 96-well clear U-bottom plates and pre-incubated for 24 hours. Addition of serially diluted inhibitor (in medium) was performed followed by 48 hours of additional incubation. Addition of CellTiter-Blue occurred to a final concentration of 0.125 mg/mL. The mixture was allowed to incubate until sufficient color changed occurred. Cell viability was measured as a function of resorfuin intensity using a Tecan M200 Pro spectrophotometer, 560 nm (ex.)/590 nm (em.). […] EC50's were determined using GraphPad Prism's built in “log(inhibitor) vs. normalized response—Variable slope” function.
Hek293 cells were purchased from ATCC. Cells were grown as described above. Cells were plated at 20 k cells/well in 96-well clear U-bottom plates and pre-incubated for 24 hours. […] Cell viability was measured as a function of resorufin intensity using a Tecan M200 Pro spectrophotometer, 560 nm (ex.)/590 nm (em.).
Human PBMCs were graciously donated from Dr. Nathan Dolloff s laboratory. […] Cell viability was measured as a function of resorufin intensity using a Tecan M200 Pro spectrophotometer, 560 nm (ex.)/590 nm (em.).

[2] = In vivo PK, plasma concentration via LC-MS/MS; set-up: species or system mice
Method: The PK parameters were analyzed. The area under the plasma concentration versus time curve (AUC) is calculated using the linear trapezoidal method. The PK data were fitted to obtain PK parameters using the non-compartmental method.
LP-411 in vivo PK. a. Semi-log PK profiles for […] at 20 mg/kg (n=3) determined through a 24 hr period. b.

MV4-11 cells [3] = test: Pulse treatment of MV4-11 cells, cell death; format: cell-based; details: 2 hr treatment (200 nM), removal of inhibitor, 24 hr incubation
[4] = ESI-LCMS glucuronidation assay; format: in vitro ADME, human; details: 2,2,2-trifluoroacetate
Method: Mixed gender pooled Human Liver Microsomes (HLMs) were purchased from Xenotech, Lot#H0160. A buffer solution containing 100 mM Tris HCl buffered to a pH of 7.5 at 37° C. was used to dilute HLMs to a concentration of 250 μg/mL. To this solution was added 1 μg/mL (final) of alamethicin and 5 mM MgCl2 (final). This solution was rocked gently at 4° C. for 15 minutes to allow pore formation. 180 μL of this solution was added to 10 μL of 5 mM inhibitor+10 μL of 50 mM UDPGA in H2O or just 10 μL H2O. This solution was gently rocked at 37° C. for 12 hours before being quenched with a 47:50:3 (v/v/v) solution of water, acetonitrile and formic acid. After a 15 minute centrifugation at 15000G in 37° C. conditions, 20 μL of supernatant was directly injected into Thermo LTQ Fleet LCMS.
An Accucore RP-MS HPLC Column, 2.6 […], 30×4.6 mm was used throughout these assays. Water and methanol with 0.1% (v/v) formic acid were used as mobile phase. A gradient of 10% methanol 90% water was run isocratically for 2 minutes at […]. The gradient then changed to 100% methanol over 10 minutes before returning to 10% methanol 90% water over the next three minutes. Capillary temperature was 350° C., with a spray voltage of 5 kV.

MV4-11 cells [5] = test: Western blot analysis of MV4-11 cells; format: cell-based
Method: MV4-11 cells were cultured as described above. Cells were plated at 500 k cells/mL×3 mLs in clear, flat bottom 6 well plates. Cells were pre-incubated for 24 hours before addition of inhibitor at various concentrations. […] Cell pellets were lysed with RIPA buffer. RIPA buffer is comprised of 50 mM Tris Base, 150 mM NaCl, 5 mM EDTA, 0.1% (v/v) SDS, 0.5% (v/v) Sodium Deoxycholate, and 1% (v/v) Triton-x-100. After lysing, the suspension is ultra-sonicated and centrifuged at 15000 RPM for 15 minute at 4° C. 80 μL of supernatant was mixed with 40 μL of 15:85 (v/v) 3-mercaptoethanol:LDS solution. The mixture was heated at 90° C. for 15 minutes and stored for loading at −20° C. Prior to loading, the solution was flash thawed at 90° C. Lysates were run on Invitrogen NuPAGE 4-12% Bis-Tris 15 well gels at 170V for approximately 60 minutes in MES buffer. Gels were transferred to […] and ran at 30V for 180 minutes. Primary antibodies, purchased from Santa Cruz Biotechnology, were added in 5% (w/v) milk or 5% (w/v) Bovine Serum Albumin fraction V. The antibody was incubated with cellulose overnight at 4° C. before addition of secondary antibody in 5% (w/v) milk or 5% (w/v) Bovine Serum Albumin. Images were read using a GE ImageQuant LAS 4000. Global lighting adjustments of resulting images were made using Adobe Photoshop CC. Quantification was performed using Image Studio Lite 4.0.

[6] = tested on: Raw246.7 macrophage cells; test: NO production in activated macrophages; format: cell-based; details: 100 nM, LPS and LPS+ATP
Text: Hypo-acetylation of histone H3 and H4 were also reversed with HDAC inhibitor treatments (yellow dash box). d.

[7] = Stability in artificial gastric and intestinal juice and human serum; format: in vitro ADME; details: over 8 hours

With `CCCNNC(=O)/C=C/c1ccc(CNCCc2c(C)[nH]c3ccccc23)cc1` [LP-97, (E)-2-(2-methyl-1H-indol-3-yl)-N-(4-(3-oxo-3-(2-propylhydrazinyl)prop-1-en-1-yl)benzyl)ethan-1-aminium 2,2,2-trifluoroacetate] as the molecule, how does the “HDAC inhibitor potency, class I HDACs” value (class I HDACs) read?
Its value is “low-nanoM to picoM”.

What about the growth inhibition concentration [1] of the same molecule?
Its growth inhibition concentration is “below 100 nM”.

And the “total growth inhibition concentration” value [1]?
Its value is 1 µM.

What about the “toxicity against wt-p53 versus p53-null and mutants” value (AML cell lines; n=3) of the same molecule?
Its value is “selective toxicity”.

And the “effective concentration against multiple AML cell lines” value (AML cell lines; wild-type p53 leukemia cell lines)?
Its value is < 100 nM.

And the “Cmax relative to panobinostat” value ([2]; 20 mg/Kg I.P.)?
The value was “about 5 times”.

What about the t1/2 ([2]; in vivo, 20 mg/kg, plasma) of the same molecule?
Its t1/2 is 6.07 h.

What about the half-life ([2]; mouse, intraperitoneal, in vivo, 20 mg/kg, plasma) of the same molecule?
The half-life was 6.07 h.

And the Cmax ([2]; mouse, plasma, ip, 20 mg/kg I.P.)?
Its Cmax is 559 ng/mL and 1.5 µM.

And the “cell death after pulse treatment” value (MV4-11 cells [3])?
Its value is “significant AML cell death”.

And the “glucuronidation by human liver microsomes” value [4]?
The value was “resistance to glucuronidation; also recorded: resistant to glucuronidation”.

And the “p53 level after pulse treatment” value (MV4-11 cells [5]; 2 hr treatment (200 nM), removal of inhibitor, 24 hr incubation)?
Its value is “significant reduction”.

And the “effect on oncogenic proteins FLT3 and STAT5” value (MV4-11 cells [5]; AML FLT3-ITD mutant cell line MV4-11)?
Its value is “degradation”.

What about the “NO production, acute treatment” value [6] of the same molecule?
Its value is “only inhibited LPS induced NO production but not ATP driven ones”.

What about the “degradation in artificial gastric and intestinal juice and human serum” value [7] of the same molecule?
The value was “no appreciable degradation”.
